Measurements taken from publication PMC3599355, “Discovery and characterization of a highly efficient enantioselective mandelonitrile hydrolase from Burkholderia cenocepacia J2315 by phylogeny-based enzymatic substrate specificity prediction” (BMC Biotechnology, 2013).

Target: T1, BCJ2315 (Burkholderia cenocepacia, UniProt B4E7T0)
T1 construct: gene BCAL2585; full-length gene in pQE30 (BamHI/HindIII), His-tag kept, E. coli M15; 37 kDa subunit, native about 450 kDa, 12 identical subunits
Experiment: HPLC hydrolysis assay, Lineweaver-Burk
Format: biochemical
Settings: standard assay: 100 mM sodium phosphate pH 7.0, 30 °C; mandelonitrile 0.1 to 15 mM; stereo form not stated

T1 sequence (B4E7T0 entry or part of it): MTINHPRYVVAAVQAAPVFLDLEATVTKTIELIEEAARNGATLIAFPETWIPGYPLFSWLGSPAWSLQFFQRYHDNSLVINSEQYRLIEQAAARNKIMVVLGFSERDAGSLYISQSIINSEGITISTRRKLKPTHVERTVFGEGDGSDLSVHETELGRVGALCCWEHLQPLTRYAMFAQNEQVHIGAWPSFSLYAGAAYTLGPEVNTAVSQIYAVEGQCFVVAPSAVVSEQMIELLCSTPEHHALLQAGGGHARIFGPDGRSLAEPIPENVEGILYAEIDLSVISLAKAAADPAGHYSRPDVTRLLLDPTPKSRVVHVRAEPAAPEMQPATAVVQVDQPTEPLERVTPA

## N#CC(O)c1ccccc1 (stereo not shown) [mandelonitrile]
  Km: 140 µM
